The values that follow are results of earlier work, collected in US20240238442A1, “LIPOSOMES DISPLAYING A GLYCAN LIGAND FOR CD33 AND THEIR USE IN THE TREATMENT OF ALZHEIMER'S DISEASE” (THE GOVERNORS OF THE UNIVERSITY OF ALBERTA, priority 2021, published 2024).

The target of this data set is CD33 (Homo sapiens, UniProt P20138). The following applies: free ligand.
CD33, sequence (P20138 18-364): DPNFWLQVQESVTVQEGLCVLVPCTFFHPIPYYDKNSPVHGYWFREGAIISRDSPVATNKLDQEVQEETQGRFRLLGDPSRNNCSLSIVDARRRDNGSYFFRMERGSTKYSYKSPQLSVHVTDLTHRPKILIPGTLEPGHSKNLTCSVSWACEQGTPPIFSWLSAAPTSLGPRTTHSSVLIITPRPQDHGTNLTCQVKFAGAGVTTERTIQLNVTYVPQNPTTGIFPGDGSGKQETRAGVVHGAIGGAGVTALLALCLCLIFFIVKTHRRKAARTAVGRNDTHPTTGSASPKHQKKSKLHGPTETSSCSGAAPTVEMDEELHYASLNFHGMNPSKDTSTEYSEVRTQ

In the case of `Cc1cc(C(=O)NC[C@@H](O)CC2O[C@@](OCC3OC(O[C@@H]4C(CO)O[C@@H](OCCN)C(O)C4O)C(O)C(O)[C@H]3O)(C(=O)O)CC(O)[C@H]2C(O)NC(=O)Cn2cc(C3CCCCC3)nn2)cc(C)c1O` (stereo partly shown) [CD33L], the dissociation constant Kd (as a rule, the constant that tells how readily two partners part at equilibrium) is 87 µM.
